1 substance from patent US7393951B2, “Antisense oligonucleotide having anticancerous activity” (Good Will Okinawa Co., Ltd., priority 2004, dated 2008) can be followed below.

Data set [1] has as its system HeLa cells. Nature of the data set: Influence on growth of HeLa human cancer cells, modified MTT method (WST-1 + 1-methoxy PMS). The data set is classed as cell-based. As to the method:
The influence of each oligo on cell growth was examined. Specifically, HeLa cells, which are human cancer cells in a DMEM medium containing 10% heat-inactivated fetal calf serum (FCS), were seeded at a density of 1500 cells/well in a 96-well plate. After culture for 24 hours, the culture solution was exchanged with a culture solution containing each oligo at a concentration of 10 μM and 1% FCS. The cells were cultured at 37° C. in the presence of CO2. Thereafter, the ratio of living cells [survival ratio of cells (%)] was examined over 4 days at 24-hour intervals (absorbance: 450 to 650 nm) by a modified MTT method (WST-1+1-methoxy PMS) using a cell counting kit (manufactured by DOJINDO). Here, a culture solution exchanged with a culture solution not containing any oligo was used as a control (this applies hereinafter).
Then, an experiment was conducted in a similar manner, setting the concentration of the oligo 3 in the culture solutions at 2.5, 5, 10 and 20 μM respectively, to examine the relationship between the inhibition of growth of human cancer cells and the concentration.
In general terms: Tetrazolium dyes change colour on reduction, which living cells bring about.

Data set [2] concerns HeLa cells. Nature of the data set: Influence on DNA synthesis of cells, incorporation of [3H]-methylthymidine. The format is cell-based, human. The note with it: for incorporation ratio of [3H]-methylthymidine into the human cancer cells to the control: HeLa, 0.1% FCS, 24 hours. As to the method:
The influence of each oligo on DNA synthesis of cells was examined by observing the incorporation of [^3H]-methylthymidine into cells. Specifically, the cells were cultured for 24 hours in the same manner as described above, and then the culture solution was exchanged with a culture solution containing each oligo at a concentration of 5, 10 or 20 μM and 0.1% FCS. After 18 hours, 1 μCi/mL [^3H]-methylthymidine was added to the culture solution, and the cells were cultured for another 6 hours. After culture, the specific radioactivity of the cells after predetermined treatment was determined with a liquid scintillation counter.

Data set [3] deals with HeLa cells. Nature of the data set: Induction of cell death of human cancer cells, microscopy and Giemsa staining. The data set is classed as cell-based. The note with it: 20 μM. As to the method: Further, the induction of cell death of the human cancer cells by the oligo 3 was examined. Specifically, 3,000 HeLa cells were seeded in a slide chamber. After culture for 24 hours, the culture solution was exchanged with a culture solution containing the oligo 3 at a concentration of 20 μM. […] Furthermore, 24 hours after addition of the oligo 3, the cells were washed with phosphate buffered saline (PBS) and then subjected to Giemsa staining to determine the numbers of living cells and dead cells, and the survival ratio of the cells (%) was determined from the obtained numbers of the cells. Here, the oligo 5 was used additionally as a control.

Data set [4] in a line: Toxicity in mice after intravenous administration (body weight, symptoms). The note with it: female mice, 20 μg per g of the body weight. The format is in vivo. As to the method:
The toxicity of the oligo 3 was examined. Specifically, the oligo 3 was dissolved in a physiological saline so as to have a concentration of 1 mg/mL and administered intravenously into female mice (5-week-old) in a dose of 20 μg per g of the body weight. On the day of administration (Day 0) and 2, 5, 10, 12 and 14 days after the administration, the weight of each mouse was determined.
FIG. 6 is a graph showing the influence of the oligo 3 on increase of the body weight of the mouse in the case of intravenous administration in a dose of 20 μg/(body weight) g. In the graph, each datum is shown in mean±SE. Here, the data were obtained by using 7 mice for the oligo 3 and 6 mice for the control, respectively.

With “oligo 3: phosphorothioate antisense DNA oligonucleotide CCTCA, to positions 47-51 of 7SL RNA of SRP (SEQ ID NO: 1) (DNA, all phosphorothioate, methylation of C not given here)”, in the data set with HeLa cells [1] (HeLa, 10 μM, over 4 days), the “inhibitory effect on growth of the human cancer cells, compared among oligos 1 to 5” value is “highest inhibitory effect”. Also, the “concentration dependence of inhibition of growth of human cancer cells” value in the data set with HeLa cells [1] (HeLa, 2.5, 5, 10 and 20 μM) is recorded as “increased in proportion to the concentration”. The “survival ratio of the cells to the control” value with HeLa cells [1] (HeLa, concentration series 2.5, 5, 10 and 20 μM (concentration of these values not given), Day 1) stood at 44.4%; in the data set with HeLa cells [1] (HeLa, concentration series 2.5, 5, 10 and 20 μM (concentration of these values not given), Day 2), 45.1%; in the data set on HeLa cells [1] (HeLa, concentration series 2.5, 5, 10 and 20 μM (concentration of these values not given), Day 3), 55.5%; in the data set with HeLa cells [1] (HeLa, concentration series 2.5, 5, 10 and 20 μM (concentration of these values not given), Day 4), 63.8%; with HeLa cells [1] (HeLa, oligo 10 μM, 1% FCS, Day 1), 49.6%; in the data set with HeLa cells [1] (HeLa, oligo 10 μM, 1% FCS, Day 2), 62.7%. The “survival ratio of the cells to the control” value amounted to 71.6% in the data set with HeLa cells [1] (HeLa, oligo 10 μM, 1% FCS, Day 3) and 71.1% with HeLa cells [1] (HeLa, oligo 10 μM, 1% FCS, Day 4). The “incorporation of [3H]-methylthymidine into the cells, compared among oligos 1 to 5” value in the data set with HeLa cells [2] (HeLa, 5, 10 or 20 μM) is recorded as “suppressed to the lowest level”. For the same substance, the “incorporation ratio of [3H]-methylthymidine into the human cancer cells to the control” value in the data set on HeLa cells [2] (oligo 5 μM) is recorded as 57.5%; in the data set on HeLa cells [2] (oligo 10 μM), 32.0%; in the data set on HeLa cells [2] (oligo 20 μM), 16.6%. Besides, the “survival ratio of the cells (living vs dead cells, Giemsa staining)” value in the data set with HeLa cells [3] (24 hours after addition) worked out at 30.8%. In addition, the “microscopic observation of cultured cells” value in the data set with HeLa cells [3] (about 18 hours after addition) is reported as “a process of from shrinkage of cells to cell death was observed”. Moreover, the “generation of symptoms versus control” value in data set [4] is “not recognized”. Moreover, the toxicity entry in data set [4] is listed as “does not exhibit toxicity particularly”. Further, the “influence on increase of the body weight versus control” value in data set [4] (Day 0 to 14) is “no difference between the oligo 3 and the control”.
